Assay results from publication PMC3209708 (Journal of medicinal chemistry, 2011).
Like-named read-outs stand apart in the source and are kept apart here. One block for each compound: values may come before it.

Assays:
FRα = FRα (Homo sapiens, UniProt P15328); details: RT16 cells, 50 nM [3H]folic acid, folic acid = 1
FRβ = FRβ (Homo sapiens, UniProt P14207); details: D4 cells, 50 nM [3H]folic acid, folic acid = 1
hPCFT [1] = target: T1, hPCFT (Homo sapiens, UniProt Q96NT5); assay: Electrophysiology, Xenopus oocytes injected with hPCFT cRNA; assay type: cell-based; details: 5 µM, pH 5.5, clamped at -90 mV
T1 sequence (Q96NT5 1-459): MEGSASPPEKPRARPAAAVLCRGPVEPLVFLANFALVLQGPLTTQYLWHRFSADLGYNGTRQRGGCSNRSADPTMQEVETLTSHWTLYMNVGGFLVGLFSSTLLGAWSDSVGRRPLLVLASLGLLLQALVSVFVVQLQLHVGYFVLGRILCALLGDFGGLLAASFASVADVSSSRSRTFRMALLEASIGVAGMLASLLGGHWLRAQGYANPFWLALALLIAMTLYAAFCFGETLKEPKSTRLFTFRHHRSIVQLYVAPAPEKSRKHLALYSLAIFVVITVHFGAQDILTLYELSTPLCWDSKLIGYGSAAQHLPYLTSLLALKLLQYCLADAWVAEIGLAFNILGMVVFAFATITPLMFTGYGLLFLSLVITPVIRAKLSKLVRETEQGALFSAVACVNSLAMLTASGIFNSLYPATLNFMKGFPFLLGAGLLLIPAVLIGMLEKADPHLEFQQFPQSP

hPCFT [2] = target: T1, hPCFT; assay: hPCFT transport assays with [3H]MTX in R2/hPCFT4 cells; assay type: cell-based; details: 10 µM competitor, 0.5 µM [3H]MTX, pH 5.5 to pH 7.2, R2/hPCFT4 cells
R2/hPCFT4 cells = assay: Nucleoside/AICA protection from growth inhibition; assay type: cell-based, Chinese hamster; details: adenosine 60 µM, thymidine 10 µM, AICA 320 µM
[3] = system: subcutaneous human IGROV1 ovarian tumors; assay: In vivo efficacy trial, IGROV1 xenografts; set-up: species or system female ICR SCID mice
PC43-10 cells (hRFC) = details: read-out: IC50 PC43-10; cited from earlier work
hPCFT [4] = target: T1, hPCFT; details: Lineweaver-Burke plots, ref 14 (Wang et al.), cited from earlier work

FRα, sequence (P15328 25-257): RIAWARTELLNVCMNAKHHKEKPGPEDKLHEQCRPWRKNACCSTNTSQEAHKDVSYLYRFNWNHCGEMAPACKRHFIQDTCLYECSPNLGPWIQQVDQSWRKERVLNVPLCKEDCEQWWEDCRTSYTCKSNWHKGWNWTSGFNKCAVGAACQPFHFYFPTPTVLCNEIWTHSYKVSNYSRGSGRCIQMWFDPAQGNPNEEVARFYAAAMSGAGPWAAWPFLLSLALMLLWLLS
FRβ, sequence (P14207 17-255): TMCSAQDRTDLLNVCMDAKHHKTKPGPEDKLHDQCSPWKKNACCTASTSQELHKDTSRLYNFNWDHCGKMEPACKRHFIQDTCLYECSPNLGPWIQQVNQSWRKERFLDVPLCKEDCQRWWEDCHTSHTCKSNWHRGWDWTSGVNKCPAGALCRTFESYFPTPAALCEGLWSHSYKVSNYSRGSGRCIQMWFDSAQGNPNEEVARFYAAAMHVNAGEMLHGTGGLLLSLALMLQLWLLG

relative binding affinity for FRα (FRα): undetectable
relative binding affinity for FRβ (FRβ): undetectable
Compound: Nc1nc2[nH]c(CCc3ccc(C(=O)N[C@@H](CCC(=O)O)C(=O)O)s3)cc2c(=O)[nH]1 [Compound 2, N-({5-[(2-amino-4-oxo-4,7-dihydro-3H-pyrrolo[2,3-d]pyrimidin-6-yl)ethyl]thiophen-2-yl}carbonyl)-L-glutamic acid]

Compound: Nc1nc2[nH]c(CCCc3ccc(C(=O)N[C@@H](CCC(=O)O)C(=O)O)s3)cc2c(=O)[nH]1 [Compound 3, N-({5-[(2-amino-4-oxo-4,7-dihydro-3H-pyrrolo[2,3-d]pyrimidin-6-yl)propyl]thiophen-2-yl}carbonyl)-L-glutamic acid]
substrate-induced current (hPCFT [1]): induced currents
inhibition of hPCFT-mediated [3H]MTX transport (hPCFT [2]): potent and essentially equivalent inhibitors
protection from growth inhibition by nucleosides/AICA (R2/hPCFT4 cells): abolished by either adenosine or AICA alone
full recovery of body weight, time post last treatment ([3]; 25 mg/kg/inj, folate-deficient diet): 8 days
full recovery of body weight, time post last treatment ([3]; 40 mg/kg/inj, folate-deficient diet): 10 days
host recovery time ([3]; folate-deficient diet): ≤ 10 days
reversible body weight loss ([3]; standard folate replete diet): 2.7–5%

Compound: Nc1nc2[nH]c(CCCCc3ccc(C(=O)N[C@@H](CCC(=O)O)C(=O)O)s3)cc2c(=O)[nH]1 [Compound 4]
gross log kill ([3]; 112.5 mg/kg/injection iv Q4dx5, folate-deficient diet): 1.2
IC50 (PC43-10 cells (hRFC)): > 1000 nM

Compound: Nc1nc(N)c2nc(CNc3ccc(C(=O)N[C@@H](CCCNC(=O)c4ccccc4C(=O)O)C(=O)O)cc3)cnc2n1 [Compound 9, N^α-(4-amino-4-deoxypteroyl)-N^δ-hemiphthaloyl-L-ornithine]
inhibition of hPCFT-mediated [3H]MTX transport (hPCFT [2]): did not inhibit

Compound: Nc1nc2c(c(=O)[nH]1)C[C@@H](CCc1ccc(C(=O)N[C@@H](CCC(=O)O)C(=O)O)cc1)CN2 [LMTX, 5,10-dideaza-5,6,7,8-tetrahydrofolate]
protection from growth inhibition by nucleosides/AICA (R2/hPCFT4 cells): abolished by either adenosine or AICA alone

Compound: CN(Cc1cnc2nc(N)nc(N)c2n1)c1ccc(C(=O)N[C@@H](CCC(=O)O)C(=O)O)cc1 [MTX, methotrexate]
Kt (hPCFT [4]; pH 5.5): 0.28 ± 0.02 µM
Vmax (hPCFT [4]; pH 5.5): 31.23 ± 4.31 pmol/mg/min
Kt (hPCFT [4]; pH 6.8): 4.52 ± 0.19 µM
Vmax (hPCFT [4]; pH 6.8): 13.72 ± 2.26 pmol/mg/min

Compound: Nc1nc2[nH]cc(CCc3ccc(C(=O)N[C@@H](CCC(=O)O)C(=O)O)cc3)c2c(=O)[nH]1 [PMX, N-{4-[2-(2-amino-3,4-dihydro-4-oxo-7H-pyrrolo[2,3-d]pyrimidin-5-yl)ethyl]benzoyl}-L-glutamic acid]
inhibition of hPCFT-mediated [3H]MTX transport (hPCFT [2]): potent and essentially equivalent inhibitors
protection from growth inhibition by nucleosides/AICA (R2/hPCFT4 cells): completely reversed by adenosine combined with thymidine
